Here are results for 6 molecules from article PMC9301920, “Physiologically Based Toxicokinetic Modeling of Bisphenols in Zebrafish (Danio rerio) Accounting for Variations in Metabolic Rates, Brain Distribution, and Liver Accumulation” (Environmental Science & Technology, 2022).

Data set [1] has as its target Estrogen receptor (ER). Also on record: method as in Tox21. The following applies: ATG ERE CIS up assay; ref Tox21; cited from earlier work.
Data set [2] in a line: In vitro biotransformation rate, rainbow trout liver S9 (OECD TG 319). It counts as in vitro ADME. How it is done:
In brief, rainbow trout liver S9 homogenate was preincubated in buffer and cofactors, followed by 120 min of incubation with bisphenol. From each duplicate, 50 μL of subsamples was taken at timepoints 0, 2, 5, 15, 30, 60, 90, and 120 min and mixed with 200 μL of ice-cold methanol. The protocol of the procedure is described further in Section 2.
1042. Biotransformation rate estimation methodology
106Trinova Biochem; Lot: 180216) was pre-incubated at 11°C in K 2HPO4/KH2PO4 buffer
107(pH=7.8; 1 mL final volume) containing alamethicin from Trichoderma viride (25 μg/mL), and
108cofactors NADPH (2 mM), UDPGA (2 mM), GSH (5 mM), and PAPS (0.1 mM). After 10 min
109of preincubation, biotransformation was started by adding 5 µL of bisphenol test compound
110dissolved in methanol (1 µM final concentration). […]

The target of data set [3] is Estrogen receptor (ER). Also on record: method as in Kitamura et al. 2005. The following applies: ERE-luciferase reporter assay, MCF-7 cells; ref Kitamura et al. 2005; cited from earlier work.
For data set [4] the following is noted: measured values; ref Grumetto et al 2019; cited from earlier work.
The target in data set [5] is Estrogen receptor (ER). Also on record: method as in Tox21. The following applies: ATG Era Trans up assay; ref Tox21; cited from earlier work.
For data set [6] the following is noted: cited from earlier work.
The test system of data set [7] is zebrafish. Also noted: method as in Nyholm et al. 46. The following applies: female, observed, ref Nyholm et al. 46, cited from earlier work.
The conditions of data set [8]: cited from earlier work. This is another data set of the same source.
The test system of data set [9] is zebrafish. In words: PBTK parameter fitting (Nelder–Mead algorithm) to in vivo zebrafish data. Also noted: species or system zebrafish (Danio rerio). The following applies: fitted on egg TBBPA concentrations, 100 nmol/g feed (Nyholm et al.).
Description: Ovaries and eggs were assumed to receive the same blood flow. The equation for the egg compartment was described as follows using the diffusion-limited equation previously described by Thompson and Beard[51] [drawing 4] 4 where dAegg/dt represents the rate of change of bisphenol over time in the egg compartment, Agon and Aegg represent the amount of compound in the gonads and egg, respectively, Vgon and Vegg are the volumes of the gonads and eggs, respectively, and Pgon and Pegg are the partition coefficients of the gonads to blood and egg to gonads.
Parameter fitting was done in R using the modFit function in the FME package with the Nelder–Mead algorithm.[53]
279For fitting, the model was run using the exposure scenarios of each fitting data set.
280parameters were fixed as presented in Tables S10-S14 with exception of the parameter for
281which fitting was performed. The outcome evaluated by fitting algorithm was the concentration
282over time in the same tissue as the experimental data. Outcomes used for fitting to measured
283experimental data were: concentration in brain for brain-blood partition coefficient,
284concentration in liver for liver-blood partition coefficient, concentration in eggs for egg-gonad
285partition coefficient and whole-body metabolite concentration for Ke bile and KBG of metabolites.
286For the liver, brain and egg partitioning, the range was set between 0.01 and 500 and the Nelder-
287Mead algorithm was run with initial estimates at 1, 5, 10, 50 and 500 in order to assure a global
288minimum was found. The fitted values returning the lowest squared sum of residuals were used
The GI lumen to GI tract diffusion rate (K u)
The conditions of data set [10]: hepatocytes; cited from earlier work.
The subject of data set [11] is zebrafish. The following applies: cited from earlier work.
In data set [12] the test system is zebrafish. The following applies: female, observed, ref Chen et al. 43, cited from earlier work.
Data set [13] relates to UGT1A1. Also noted: method as in Wang et al. 64. The following applies: single isolated enzyme; ref Wang et al. 64; cited from earlier work.
Data set [14] has as its system ER. The following applies: known from literature, no reference given; cited from earlier work.
Setting [15] is: from measured S9 clearance, transformed as suggested by Nichols et al.
Where [16] appears, read: in vitro incubation with rainbow trout liver S9, assuming 163 mg S9 protein/g liver.
Where [17] appears, read: measured human values, ref CompTox Dashboard.

Where two headings read alike, the source gives them in different places. Marks after values point to notes of the source that are not given here.

On to `CCC(C)(c1ccc(O)cc1)c1ccc(O)cc1` [BPB, bisphenol B], for which the results for the EC50 in data set [1], in data set [3] and in [5] were 0.17 µM, 0.07 µM and 0.13 µM, respectively. Also, the CL in [2] (both series combined) was 0.96 mL/(h x mg); in [2] (series 1 (s1)), 0.92 mL/(h x mg); in data set [2] (series 2 (s2)), 1.00 mL/(h x mg). In addition, the “CLin vivo,int (in vivo intrinsic clearance)” value (shortened to “CLin vivo,int”) in data set [2] (setting [15]) is listed as 56.4 L/d/Kg fish. The “CL (clearance rate)” value in [2] (setting [16]) was 3.76 × 10^3 mL/d/g liver. In addition, the “k (first-order disappearance rate constant)” value was 0.95 h⁻¹ in data set [2] (series 1 (s1)) and 0.99 h⁻¹ in data set [2] (series 2 (s2)). In data set [4], the Ratio blood-plasma is given as 1.04. In addition, the “Funbound (plasma fraction unbound)” value in data set [6] (setting [17]) is 0.018.
Turning to `CC(C)(c1cc(Br)c(O)c(Br)c1)c1cc(Br)c(O)c(Br)c1` [TBBPA, tetrabromobisphenol A], the “parent compound metabolized when levels stopped decreasing” value in [2] (after 15 min of incubation, both repetitions) is roughly 70%. The figures for the CL in data set [2] (both series combined), in [2] (series 1 (s1)) and in [2] (series 2 (s2)) were 4.18 mL/(h x mg), 3.90 mL/(h x mg) and 4.45 mL/(h x mg), respectively. The “CLin vivo,int” value in [2] (setting [15]) is listed as 245 L/d/Kg fish. Further, the “CL (clearance rate)” value in data set [2] (setting [16]) is 1.63 × 10^4 mL/d/g liver. The entries for the “k (first-order disappearance rate constant)” value in [2] (series 1 (s1)) and in [2] (series 2 (s2)) were 3.95 h⁻¹ and 4.38 h⁻¹, respectively. The AUC is 0.017 µg/g/day in [7] (10 nmol/g feed, egg); 0.291 µg/g/day in data set [7] (10 nmol/g feed, whole body); 0.118 µg/g/day in data set [7] (100 nmol/g feed, egg). Besides, the Cmax was 0.001 µg/g in data set [7] (10 nmol/g feed, egg); 0.015 µg/g in data set [7] (10 nmol/g feed, whole body); 0.004 µg/g in [7] (100 nmol/g feed, egg). In addition, in data set [8] (measured value, ref Kuramochi et al. 68), the “log Kow” value was 6.53 ^i. The “Ku (diffusion coefficient from GI lumen into GI tract)” value in data set [9] turned out to be 8.40. The “Pegg (egg-gonad partition coefficient)” value in [9] (used for all bisphenols) came out at 1.58. Moreover, the “Funbound (plasma fraction unbound)” value in data set [6] (setting [17]) is on record as 0.001.
For `O=C(c1ccc(O)cc1O)c1ccc(O)cc1O` [BP-2, benzophenone 2], the EC50 in data set [1] and in data set [5] was 0.62 µM throughout. Further, the “CL (clearance rate)” value in [2] (163 mg) is reported as 5.79 × 10^4 mL/d/g liver. For the same molecule, in data set [2] (s9), the “CLin vivo,int” value was determined as 869 L/d/Kg fish. Besides, the “CL (human clearance rate)” value in data set [10] was 1.41*105 ml/d/g liver. In data set [6] (human, plasma), the “Funbound (plasma fraction unbound)” value is 0.035.
For the molecule `CC(C)(c1ccc(O)cc1)c1ccc(O)cc1` [BPA, Bisphenol A], the “CLin vivo,int” value in data set [2] (setting [15]) came to 36.7 L/d/Kg fish. For the same molecule, the BCF is 6.46 in data set [11] (97.5 μg/L, gender not specified, whole body, observed, ref Lindholst et al. 39); 201 in [12] (1.94 μg/L, liver); 10.3 in data set [12] (1.94 μg/L, ovaries); 199 in [12] (5.72 μg/L, liver); 21.0 in data set [12] (5.72 μg/L, ovaries); 19.2 in [12] (5.72 μg/L, whole body). Moreover, the t1/2 in data set [11] (zebrafish, in vivo) was 107 h. For the same molecule, the “CL (human clearance rate)” value in data set [10] is given as 1.46*105 ml/d/g liver. Also, the “log Kow” value in [8] (ref Staples et al. 67) is recorded as 3.42 ^f. In data set [13], the UGT1A1 activity is 5.19 pmol/min/mg protein. In data set [6] (plasma), the “Funbound (plasma fraction unbound)” value is listed as 0.035.
Consider `CC(C)(C)c1cc(Cc2cc(C(C)(C)C)c(O)c(C(C)(C)C)c2)cc(C(C)(C)C)c1O` [Bimox M], for which, in data set [2], the “CL (in vitro rainbow trout clearance rate)” value amounted to 0 ml/d/g liver and the metabolic degradation result is reported as “no metabolic degradation”. In data set [2] (163 mg), the “CL (clearance rate)” value was 0 mL/d/g liver. For the same molecule, the “CLin vivo,int” value in data set [2] (s9) came out at 0 L/d/Kg fish. In [14], the ER activity entry was “inactive on the ER”.
For `Oc1ccc(Cc2ccc(O)cc2)cc1` [BPF, bisphenol F], the EC50 in data set [1] is 0.78 µM; in data set [3], 1 µM; in [5], 0.95 µM. Moreover, the results for the CL in data set [2] (both series combined), in data set [2] (series 1 (s1)) and in data set [2] (series 2 (s2)) were 0.31 mL/(h x mg), 0.31 mL/(h x mg) and 0.30 mL/(h x mg), respectively. Further, the “CLin vivo,int” value in data set [2] (setting [15]) was 18.0 L/d/Kg fish. Moreover, the “CL (clearance rate)” value in data set [2] (setting [16]) was 1.20 × 10^3 mL/d/g liver. For the same molecule, the “k (first-order disappearance rate constant)” value in data set [2] (series 1 (s1)) and in data set [2] (series 2 (s2)) was 0.31 h⁻¹ in each case. In addition, the Ratio blood-plasma in [4] is 1.41. Further, the “log Kow” value in [8] (measured value, ref CompTox Dashboard) was 2.91 ^h.

For orientation: EC50 means the midpoint of the concentration-response curve. In general, Cmax refers to the maximum level reached in the sampled fluid or tissue.
